Values quoted from earlier work, collected in patent US9592318B2, “Topical analgesic composition” (Animal Ethics Pty Ltd, priority 2005, dated 2017).

Legend:
significant open wound = conditions: topical, FIG. 2 area '3'
[1] = following injection

| Compound | duration of anesthesia of open wound (significant open wound) | duration of action [1] [h] |
| --- | --- | --- |
| CCN(CC)CC(=O)Nc1c(C)cccc1C [Lignocaine] | around 30 minutes |  |
| CCCCN1CCCCC1C(=O)Nc1c(C)cccc1C (centres unmarked) [bupivacaine] |  | 6 to 8 |
